Here are results for 32 compounds from patent US8871756B2 (Hoffmann-La Roche Inc., priority 2011, dated 2014).

Each structure is given as a SMILES string. Structures can show the parent of a compound that is named as a salt.

This experiment relates to RSV Long strain. The experiment is described as follows: Viral cytopathic effect (CPE) assay, anti-RSV activity. The format is cell-based, Respiratory Syncytial Virus. Conditions: RSV Long strain (ATCC), cell viability after 6 days, Cell Counting kit-8. The procedure, abridged:
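Cells (6×10^3/well, DMEM with 10% FBS) were infected next day with RSV Long strain, at a dose giving approximately 80–90% CPE, alongside serial half-log compound dilutions. Viability was read after 6 days by CCK-8 absorbance at 450 nm (reference 630 nm), and EC50 was derived from it.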

Setting [1] is: human respiratory syncytial virus, 144 h.

The EC50 is the concentration needed to bring the measured effect to its halfway point. Low readings indicate an effect from little substance, high ones a need for much substance.

As to `Cc1ccc2nc(N3CCC(F)(F)c4ccccc4C3)cc(N3C[C@@H](N)[C@H](O)C3)c2c1` (relative stereo) [Example 111-11, trans-4-Amino-1-[2-(5,5-difluoro-1,3,4,5-tetrahydro-2H-2-benzazepin-2-yl)-6-methylquinolin-4-yl]pyrrolidin-3-ol], the midpoint of the response under setting [1], the EC50, lay at 0.588 µM.
For the compound `Cc1ccc2nc(N3CCS(=O)(=O)c4cc(F)ccc4C3)cc(NCC3(N)COC3)c2c1` [Example 1-2, N-[(3-Aminooxetan-3-yl)methyl]-2-(8-fluoro-1,1-dioxido-2,3-dihydro-1,4-benzothiazepin-4(5H)-yl)-6-methylquinolin-4-amine], the EC50 under setting [1] is 0.007 µM.
`CC(C)(N)CNc1cc(N2CCS(=O)(=O)c3ccccc3C2)nc2ccccc12` [Example 5-4, N˜1˜-[2-(1,1-Dioxido-2,3-dihydro-1,4-benzothiazepin-4(5H)-yl)quinolin-4-yl]-2-methylpropane-1,2-diamine] showed an EC50 under setting [1] of 0.326 µM.
Same read-out and setting: the value for `Cc1ccc2nc(N3CCS(=O)(=O)c4ccccc4C3)cc(N3CCC(NC4COC4)C3)c2c1` (centres unmarked) [Example 45-2, 1-[2-(1,1-Dioxido-2,3-dihydro-1,4-benzothiazepin-4(5H)-yl)-6-methylquinolin-4-yl]-N-(oxetan-3-yl)pyrrolidin-3-amine] was 0.253 µM; that for `Cc1ccc2nc(N3CCC(F)(F)c4ccccc4C3)cc(N3CCNCC3)c2c1` [Example 111-1, 5,5-Difluoro-2-[6-methyl-4-(piperazin-1-yl)quinolin-2-yl]-2,3,4,5-tetrahydro-1H-2-benzazepine] was 2.01 µM.
Still for that read-out and setting: the value for `Cc1ccc2nc(N3CCS(=O)(=O)c4ccccc4C3)cc(N3CC(N)C4(COC4)C3)c2c1` (centres unmarked) [Example 23, 6-[2-(1,1-Dioxido-2,3-dihydro-1,4-benzothiazepin-4(5 H)-yl)-6-methylquinolin-4-yl]-2-oxa-6-azaspiro[3.4]octan-8-amine] was 5.19 µM; that for `Cc1ccc2nc(N3CCS(=O)(=O)c4ccccc4C3)cc(NCC3(N)CCOC3)c2c1` (centres unmarked) [Example 2-1, N-[(3-Aminotetrahydrofuran-3-yl)methyl]-2-(1,1-dioxido-2,3-dihydro-1,4-benzothiazepin-4(5H)-yl)-6-methylquinolin-4-amine] was 0.024 µM.
On the same count and under the same terms, then `Cc1ccc2nc(N3CCS(=O)(=O)c4ccccc4C3)cc(N[C@@H]3CCOC3)c2c1` [Example 3-49, 2-(1,1-Dioxido-2,3-dihydro-1,4-benzothiazepin-4(5H)-yl)-6-methyl-N-[(3R)-tetrahydrofuran-3-yl]quinolin-4-amine], with 0.099 µM; and `CCNCCNc1cc(N2CCS(=O)(=O)c3ccccc3C2)nc2ccc(C)cc12` [Example 3-37, N-[2-(1,1-Dioxido-2,3-dihydro-1,4-benzothiazepin-4(5H)-yl)-6-methylquinolin-4-yl]-N′-ethylethane-1,2-diamine], with 0.017 µM; and `Cc1ccc2nc(N3CCS(=O)(=O)c4ccccc4C3)cc(Nc3cccc(N)c3)c2c1` [Example 15-1, N-[2-(1,1-Dioxido-2,3-dihydro-1,4-benzothiazepin-4(5H)-yl)-6-methylquinolin-4-yl]benzene-1,3-diamine], with 7.89 µM.
Under setting [1], `CNc1cc(N2CCS(=O)(=O)c3ccccc3C2)nc2ccc(C)cc12` [Example 3-33, 2-(1,1-Dioxido-2,3-dihydro-1,4-benzothiazepin-4(5H)-yl)-N,6-dimethylquinolin-4-amine trifluoroacetate] gave an EC50 of 0.426 µM.
Regarding `Cc1ccc2nc(N3CCS(=O)(=O)c4ccccc4C3)cc(NC[C@H](O)CO)c2c1` [Example 3-10, (2S)-3-{[2-(1,1-Dioxido-2,3-dihydro-1,4-benzothiazepin-4(5H)-yl)-6-methylquinolin-4-yl]amino}propane-1,2-diol], the EC50 under setting [1] is 0.053 µM.
On the same count and under the same terms, then `Cc1ccc2nc(N3CCS(=O)(=O)c4ccccc4C3)cc(N[C@@H](C)CO)c2c1` [Example 8-2, (2S)-2-{[2-(1,1-Dioxido-2,3-dihydro-1,4-benzothiazepin-4(5H)-yl)-6-methylquinolin-4-yl]amino}propan-1-ol], with 0.817 µM; and `Cc1ccc2nc(N3CCS(=O)(=O)c4ccccc4C3)cc(NC3COC3)c2c1` [Example 3-47, 2-(1,1-Dioxido-2,3-dihydro-1,4-benzothiazepin-4(5H)-yl)-6-methyl-N-(oxetan-3-yl)quinolin-4-amine], with 0.101 µM; and `Cc1ccc2nc(N3CCCc4cc(F)ccc4C3)cc(NCCN)c2c1` [Example 118-13, N-[2-(7-Fluoro-1,3,4,5-tetrahydro-2H-2-benzazepin-2-yl)-6-methylquinolin-4-yl]ethane-1,2-diamine], with 0.463 µM.
`Cc1ccc2nc(N3CC[S+]([O-])c4ccccc4C3)cc(NCC3(N)COC3)c2c1` (centres unmarked) [Example 18-1, N-[(3-Aminooxetan-3-yl)methyl]-6-methyl-2-(1-oxido-2,3-dihydro-1,4-benzothiazepin-4(5H)-yl)quinolin-4-amine] showed an EC50 of 0.003 µM.
For `NCCNc1cc(N2CCCc3ccc(F)cc3C2)nc2ccccc12` [Example 118-7, N-[2-(8-Fluoro-1,3,4,5-tetrahydro-2H-2-benzazepin-2-yl)quinolin-4-yl]ethane-1,2-diamine], under setting [1], the response was half-maximal at 0.166 µM (EC50).
Still for that read-out and setting: the value for `NCCNc1cc(N2CCS(=O)(=O)c3ccccc3C2)nc2ccc(F)cc12` [Example 9-9, N-[2-(1,1-Dioxido-2,3-dihydro-1,4-benzothiazepin-4(5H)-yl)-6-fluoroquinolin-4-yl]ethane-1,2-diamine] was 0.157 µM; that for `CC(O)c1ccc2nc(N3CCS(=O)(=O)c4ccccc4C3)cc(NCCCN)c2c1` (centres unmarked) [Example 82, 1-{4-[(3-Aminopropyl)amino]-2-(1,1-dioxido-2,3-dihydro-1,4-benzothiazepin-4(5H)-yl)quinolin-6-yl}ethanol] was 0.014 µM; that for `Cc1ccc2nc(N3CCS(=O)(=O)c4ccccc4C3)cc(Nc3ccc(N)cc3)c2c1` [Example 15-2, N-[2-(1,1-Dioxido-2,3-dihydro-1,4-benzothiazepin-4(5H)-yl)-6-methylquinolin-4-yl]benzene-1,4-diamine] was 7.99 µM.
Under setting [1], `COC(=O)c1ccc2nc(N3CCS(=O)(=O)c4ccccc4C3)cc(NCC3(CN)COC3)c2c1` [Example 104, Methyl 4-({[3-(aminomethyl)oxetan-3-yl]methyl}amino)-2-(1,1-dioxido-2,3-dihydro-1,4-benzothiazepin-4(5H)-yl)quinoline-6-carboxylate] displayed an EC50 of 0.89 µM.
Still for that read-out and setting: then `COc1ccc2c(c1)CN(c1cc(NCC3(N)COC3)c3ccccc3n1)CCS2(=O)=O` [Example 1-7, N-[(3-Aminooxetan-3-yl)methyl]-2-(7-methoxy-1,1-dioxido-2,3-dihydro-1,4-benzothiazepin-4(5H)-yl)-quinolin-4-amine], with 0.022 µM.
On the same count and under the same terms, then `Cc1ccc2nc(N3CCS(=O)(=O)c4ccccc4C3C)cc(NCC(O)CO)c2c1` (centres unmarked) [Example 32-5, 3-{[6-Methyl-2-(5-methyl-1,1-dioxido-2,3-dihydro-1,4-benzothiazepin-4(5H)-yl)quinolin-4-yl]amino}propane-1,2-diol], with 2.58 µM; and `OCc1cc(N2CCCc3ccccc3C2)nc2ccccc12` [Example 129, [2-(1,3,4,5-Tetrahydro-2H-2-benzazepin-2-yl)quinolin-4-yl]methanol], with 7.88 µM.
Still for that read-out and setting: then `Cc1ccc2nc(N3CCS(=O)(=O)c4ccccc4C3)cc(NCC(N)=O)c2c1` [Example 36-5, N^˜2^˜-[2-(1,1-Dioxido-2,3-dihydro-1,4-benzothiazepin-4(5H)-yl)-6-methylquinolin-4-yl]glycinamide], with 0.026 µM; and `Cc1ccc2nc(N3CCC(F)(F)c4ccccc4C3)cc(NCC(C)N)c2c1` (centres unmarked) [Example 110-8, N^˜1^˜-[2-(5,5-Difluoro-1,3,4,5-tetrahydro-2H-2-benzazepin-2-yl)-6-methylquinolin-4-yl]propane-1,2-diamine], with 0.081 µM; and `Cc1ccc2nc(N3CCS(=O)(=O)c4ccccc4C3)cc(NS(=O)(=O)C(F)(F)F)c2c1` [Example 3-57, N-[2-(1,1-Dioxido-2,3-dihydro-1,4-benzothiazepin-4(5H)-yl)-6-methylquinolin-4-yl]-1,1,1-trifluoromethanesulfonamide hydrochloride], with 7.53 µM.
Under setting [1], `COCCNc1cc(N2CCS(=O)(=O)c3ccccc3C2)nc2ccc(C)cc12` [Example 9-26, 2-(1,1-Dioxido-2,3-dihydro-1,4-benzothiazepin-4(5H)-yl)-N-(2-methoxyethyl)-6-methylquinolin-4-amine] had an EC50 of 7.2 µM.
The same measure, in the same setting: the value for `Cc1ccc2nc(N3CC[S+]([O-])c4ccccc4C3)cc(N[C@@H]3CNC[C@H]3F)c2c1` (relative stereo) [Example 28-5, N-[trans-4-Fluoropyrrolidin-3-yl]-6-methyl-2-(1-oxido-2,3-dihydro-1,4-benzothiazepin-4(5H)-yl)quinolin-4-amine] was 0.003 µM; that for `Cc1ccc2nc(N3CCS(=O)(=O)c4ccccc4C3)cc(N3C[C@@H](O)[C@H](N4CCN(C)CC4)C3)c2c1` [Example 8-6, (3R,4R)-1-[2-(1,1-Dioxido-2,3-dihydro-1,4-benzothiazepin-4(5H)-yl)-6-methylquinolin-4-yl]-4-(4-methylpiperazin-1-yl)pyrrolidin-3-ol] was 3.77 µM; that for `NCCNc1cc(N2CCCc3ccccc3C2)nc2ccc(Oc3ccccn3)cc12` [Example 122, N-[6-(Pyridin-2-yloxy)-2-(1,3,4,5-tetrahydro-2H-2-benzazepin-2-yl)quinolin-4-yl]ethane-1,2-diamine] was 3.12 µM.
As for `CNCCNc1cc(N2CCC(F)(F)c3ccccc3C2)nc2ccc(C)cc12` [Example 110-3, N-[2-(5,5-Difluoro-1,3,4,5-tetrahydro-2H-2-benzazepin-2-yl)-6-methylquinolin-4-yl]-N′-methylethane-1,2-diamine], under setting [1], the EC50 was 0.161 µM.
